{"source": "paper PMC4705464", "about": "“Sensillar expression and responses of olfactory receptors reveal different peripheral coding in two Helicoverpa species using the same pheromone components” (Scientific Reports, 2016)", "assay_in_all_cases": "two-electrode voltage clamp, Xenopus oocytes", "type_in_all_cases": "cell-based", "key": {"[1]": {"biological_target": "T1, HarmOR14b/HarmOrco (Helicoverpa armigera, UniProt R4JUU3)", "T1 construct": "gene OR14b; full ORF in pT7Ts, cRNA co-expressed with HarmOrco in Xenopus oocytes; alignment of OR14b orthologues over 440 residues; with Odorant receptor coreceptor", "T1 sequence (R4JUU3 1-440)": "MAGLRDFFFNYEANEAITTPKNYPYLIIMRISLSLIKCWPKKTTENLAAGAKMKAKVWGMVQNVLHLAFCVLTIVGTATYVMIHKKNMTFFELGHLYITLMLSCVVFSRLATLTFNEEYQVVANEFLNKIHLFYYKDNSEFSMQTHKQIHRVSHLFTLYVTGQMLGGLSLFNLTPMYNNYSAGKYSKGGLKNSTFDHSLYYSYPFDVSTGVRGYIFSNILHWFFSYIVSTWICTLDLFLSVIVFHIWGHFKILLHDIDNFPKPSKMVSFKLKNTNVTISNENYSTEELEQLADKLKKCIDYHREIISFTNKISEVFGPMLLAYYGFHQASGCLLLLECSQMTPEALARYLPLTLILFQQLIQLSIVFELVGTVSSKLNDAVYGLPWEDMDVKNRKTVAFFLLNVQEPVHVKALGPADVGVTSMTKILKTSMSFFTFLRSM", "details": "agonist; 10^-4 mol/L; with HarmOrco"}, "[2]": {"biological_target": "T2, HassOR16/Orco (Helicoverpa assulta, UniProt C6K7C1)", "T2 construct": "full ORF in pT7Ts, cRNA co-expressed with Orco in Xenopus oocytes; with Odorant receptor coreceptor", "T2 sequence (C6K7C1 1-422)": "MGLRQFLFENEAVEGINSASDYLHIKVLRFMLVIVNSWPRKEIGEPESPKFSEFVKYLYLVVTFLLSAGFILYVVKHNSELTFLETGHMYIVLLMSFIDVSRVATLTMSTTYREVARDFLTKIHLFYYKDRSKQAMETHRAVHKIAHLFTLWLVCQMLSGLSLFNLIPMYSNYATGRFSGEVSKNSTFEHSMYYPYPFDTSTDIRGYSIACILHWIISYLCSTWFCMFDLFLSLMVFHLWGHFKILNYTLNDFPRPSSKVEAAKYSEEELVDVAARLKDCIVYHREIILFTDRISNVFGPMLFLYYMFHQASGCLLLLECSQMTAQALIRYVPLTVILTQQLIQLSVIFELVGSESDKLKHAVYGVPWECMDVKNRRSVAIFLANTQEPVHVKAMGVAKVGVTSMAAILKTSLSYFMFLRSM", "T2 sequence (A7UGE1 1-473 partner)": "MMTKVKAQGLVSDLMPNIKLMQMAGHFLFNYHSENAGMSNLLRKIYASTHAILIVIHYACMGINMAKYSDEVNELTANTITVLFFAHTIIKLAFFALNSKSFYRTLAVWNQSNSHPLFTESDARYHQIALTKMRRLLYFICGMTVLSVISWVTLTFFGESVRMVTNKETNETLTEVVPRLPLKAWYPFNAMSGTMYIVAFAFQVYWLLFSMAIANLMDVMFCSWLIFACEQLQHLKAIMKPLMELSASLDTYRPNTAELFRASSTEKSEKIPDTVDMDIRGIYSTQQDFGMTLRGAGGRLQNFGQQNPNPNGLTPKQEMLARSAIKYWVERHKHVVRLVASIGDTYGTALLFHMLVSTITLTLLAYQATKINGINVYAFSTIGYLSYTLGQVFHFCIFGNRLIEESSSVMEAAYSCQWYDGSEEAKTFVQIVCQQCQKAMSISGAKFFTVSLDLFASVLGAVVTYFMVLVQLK", "details": "agonist; with Orco"}, "[3]": {"biological_target": "T3, HassOR6/Orco (Helicoverpa assulta, UniProt R4JLZ7)", "T3 construct": "gene OR6; full ORF in pT7Ts, cRNA co-expressed with Orco in Xenopus oocytes; with Odorant receptor coreceptor", "T3 sequence (R4JLZ7 1-425)": "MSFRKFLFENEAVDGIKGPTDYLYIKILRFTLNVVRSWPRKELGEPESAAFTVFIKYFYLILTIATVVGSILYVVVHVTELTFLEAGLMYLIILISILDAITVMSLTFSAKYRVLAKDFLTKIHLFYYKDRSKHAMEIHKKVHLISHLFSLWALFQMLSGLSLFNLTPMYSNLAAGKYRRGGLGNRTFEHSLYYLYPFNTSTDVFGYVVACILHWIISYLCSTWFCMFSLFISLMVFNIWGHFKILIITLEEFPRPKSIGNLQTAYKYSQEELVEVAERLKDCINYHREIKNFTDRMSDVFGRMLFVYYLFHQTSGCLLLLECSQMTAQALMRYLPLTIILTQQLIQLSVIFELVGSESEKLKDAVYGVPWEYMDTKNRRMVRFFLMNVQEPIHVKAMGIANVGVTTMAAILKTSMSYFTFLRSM", "T3 sequence (A7UGE1 1-473 partner)": "T2 sequence (A7UGE1 1-473 partner)", "details": "agonist, main ligand; with Orco"}, "[4]": {"biological_target": "T4, HassOR13/Orco (Helicoverpa assulta, UniProt A0A0B4ZYC6)", "T4 construct": "gene OR13; full ORF in pT7Ts, cRNA co-expressed with Orco in Xenopus oocytes; with Odorant receptor coreceptor", "T4 sequence (A0A0B4ZYC6 1-425)": "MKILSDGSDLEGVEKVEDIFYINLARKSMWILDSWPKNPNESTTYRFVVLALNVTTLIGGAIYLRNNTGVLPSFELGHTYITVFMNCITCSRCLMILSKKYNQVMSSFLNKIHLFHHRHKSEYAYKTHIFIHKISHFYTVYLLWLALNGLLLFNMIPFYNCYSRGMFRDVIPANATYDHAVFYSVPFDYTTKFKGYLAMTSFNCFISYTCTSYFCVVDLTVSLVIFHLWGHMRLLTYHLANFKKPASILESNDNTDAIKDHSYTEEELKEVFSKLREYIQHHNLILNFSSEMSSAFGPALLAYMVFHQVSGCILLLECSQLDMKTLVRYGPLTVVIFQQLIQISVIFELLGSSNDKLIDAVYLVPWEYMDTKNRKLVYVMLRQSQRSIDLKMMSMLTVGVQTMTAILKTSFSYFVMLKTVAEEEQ", "T4 sequence (A7UGE1 1-473 partner)": "T2 sequence (A7UGE1 1-473 partner)", "details": "agonist; with Orco"}}, "data": [{"smiles": "CCCC/C=C\\CCCCCCCC=O", "note": "[Z9-14:Ald]", "values": [{"measurement": "inward current response", "setting": "[1]", "value": "this receptor, when expressed in Xenopus oocytes, responds specifically to Z9-14:Ald"}, {"measurement": "current response", "setting": "[2]", "value": "HassOR13/Orco and HassOR16/Orco were narrowly tuned to Z11-16:Ald and Z9-14:Ald respectively"}]}, {"smiles": "CCCCCC/C=C\\CCCCCCCCO", "note": "[Z9-16:OH]", "values": [{"measurement": "current response", "setting": "[3]", "value": "HassOR6/Orco responded mainly to Z9-16:OH"}]}, {"smiles": "CCCC/C=C\\CCCCCCCCCC=O", "note": "[Z11-16:Ald, (Z)-11-hexadecenal]", "values": [{"measurement": "current response", "setting": "[4]", "value": "HassOR13/Orco and HassOR16/Orco were narrowly tuned to Z11-16:Ald and Z9-14:Ald respectively"}]}]}
